Experimental data: the RepoRT retention time repository (doi:10.1021/acs.analchem.1c00972)

Legend:
[1] = RP, Waters ACQUITY UPLC BEH C18, 100 × 1 mm, 1.7 µm, 50 °C, 0.3 mL/min, estimated dead time 0.17 min; A: water + 0.1% formic acid + 20 mM ammonium formate; B: methanol + 0.1% formic acid + 20 mM ammonium formate; gradient (min/%B) 0/0 15/100 21/100 22/0 30/0; conditions: stereoisomer not certain
[2] = RP, Waters ACQUITY UPLC BEH C18, 100 × 1 mm, 1.7 µm, 50 °C, 0.3 mL/min, estimated dead time 0.17 min; A: water + 10 mM ammonium bicarbonate; B: 10% water + 90% methanol + 10 mM ammonium bicarbonate; gradient (min/%B) 0/0 15/100 21/100 22/0 30/0; conditions: stereoisomer not certain

SMILES | LC retention time [1] [min] | LC retention time [2] [min]
CC1CCCC(O)CCCC=Cc2cc(O)cc(O)c2C(=O)O1 (stereo not drawn) [beta Zearalenol] | 13.4 | 13.3
CCCOP(=S)(OCCC)SCC(=O)N1CCCCC1C (stereo not drawn) [Piperophos] | 16.3 | 16.6
CC(C)(C)c1cccc(C(C)(C)C)c1O [2,6-di-tert-Butylphenol] | 16.2 | 16.6
COc1cc2c3c(c1OC)-c1ccccc1CC3N(C)CC2 (single isomer, unassigned; (-)) [(-)-Nuciferine] | 10.5 | 15.6
CNC(=O)N(C)c1nc2ccccc2s1 [Methabenzthiazuron] | 12.7 | 13
CC12CCC3C(CCC4=CC(=O)CCC43C)C1CCC2=O (stereo not drawn) [4-Androstene-3,17-dione] | 14 | 14.2
COc1nc(NC(C)C)nc(NC(C)C)n1 [Prometon] | 12.2 | 14.1
CNC(=O)Oc1cc(C)c(N(C)C)c(C)c1 [Mexacarbate] | 8.62 | 14.8
CCC(=NOCC=CCl)C1=C(O)CC(C2CCOCC2)CC1=O (single isomer, unassigned; peak1) [Tepraloxydim Peak1] | 14.7 | 9.25
CC=C1CC(C)C(O)(CO)C(=O)OCC2=CC[N+]3([O-])CCC(OC1=O)C23 (stereo not drawn) [Retrorsine N-oxide] | 7.74 | 8.61
O=C(Nc1ccc(F)cc1F)c1cccnc1Oc1cccc(C(F)(F)F)c1 [Diflufenican] | 16.3 | 16.7
CC[N+]1([O-])CCCC1CNC(=O)c1cc(S(=O)(=O)CC)c(N)cc1OC (stereo not drawn) [Amisulpride N-Oxide] | 8.4 | 8.43
NC(=O)N1c2ccccc2CC(O)c2ccccc21 (stereo not drawn) [10,11-Dihydro-10-hydroxycarbamazepine] | 10.7 | 10.9
COP(=S)(OC)Oc1ccc(S(C)=O)c(C)c1 (stereo not drawn) [Fenthion-sulfoxide] | 12.1 | 12.3
c1ccc2n[nH]nc2c1 [1H-Benzotriazole] | 7.88 | 6.66
NC(=NCCCCCCN=C(N)N=C(N)Nc1ccc(Cl)cc1)N=C(N)Nc1ccc(Cl)cc1 [Chlorohexidine] | 12.2 | 6.38
CN1CCN(C2=Nc3cc(Cl)ccc3Nc3ccccc32)CC1 [Clozapine] | 11.7 | 15.7
Nc1c(Br)cc(Br)cc1CNC1CCC(O)CC1 (stereo not drawn) [Ambroxol] | 10.6 | 15.4
CCCCc1oc2ccccc2c1C(=O)c1cc(I)c(OCCN(CC)CC)c(I)c1 [Amiodarone] | 16.7 | 20.1
c1ccc2sc(SSc3nc4ccccc4s3)nc2c1 [2,2-Dibenzothiazoyl disulfide] | 17.2 | 13.9
Cc1cc(C)c2ccccc2n1 [2,4-Dimethylchinolin] | 7.37 | 13.6
CCCCC(CC)COP(=O)(Oc1ccccc1)Oc1ccccc1 (stereo not drawn) [2-Ethylhexyldiphenyl phosphate] | 17.7 | 18.1
CCCCCCCCSCCOCCO [2(2(octylsulfanyl)ethoxy)ethanol] | 16.5 | 16.9
CN(C(=O)COc1nc2ccccc2s1)c1ccccc1 [Mefenacet] | 14.6 | 14.9
COC(=O)c1ccccc1S(=O)(=O)NC(=O)N(C)c1nc(C)nc(OC)n1 [Tribenuron-methyl] | 12.8 | 9.4
CCOC(=O)CCN(SN(C)C(=O)Oc1cccc2c1OC(C)(C)C2)C(C)C [Benfuracarb] | 16.6 | 17
CC1(C)SC2C(NC(=O)C(N)c3ccc(O)cc3)C(=O)N2C1C(=O)O (stereo not drawn) [Amoxicillin] | 5.66 | 6.74

Continued, values first:

LC retention time [1] [min] | LC retention time [2] [min] | SMILES
6.39 | 6.03 | O=S(=O)(O)ON=C(Cc1c[nH]c2ccccc12)SC1OC(CO)C(O)C(O)C1O (stereo not drawn) [Glucobrassicin]
17 | 17.3 | CCCCC(CC)COC(=O)CC(C(=O)OCC(CC)CCCC)S(=O)(=O)O (stereo not drawn) [Dioctylsulfosuccinate]
15.7 | 18 | Clc1ccc(COC(Cn2ccnc2)c2ccc(Cl)cc2Cl)c(Cl)c1 (stereo not drawn) [Miconazole]
9.9 | 10 | CC(=O)NCC1CN(c2ccc(N3CCOCC3)c(F)c2)C(=O)O1 (stereo not drawn) [Linezolid]
4.92 | 8.77 | CCC1C(=O)OCC1Cc1cncn1C (stereo not drawn) [Pilocarpine]
15.9 | 18.8 | CC(C)(C)c1ccc(C(=O)CCCN2CCC(OC(c3ccccc3)c3ccccc3)CC2)cc1 [Ebastin]
8.5 | 4.91 | COc1ccc2c(c1)OC(O)C(=O)N2O (stereo not drawn) [DIMBOA]
9.7 | 14.9 | CN1CCN2c3ncccc3Cc3ccccc3C2C1 (stereo not drawn) [Mirtazapine]
16.1 | 16.5 | CCCCCCCCCC(=O)N(C)C [N,N-Dimethyldecan-1-amide]
11.6 | 12.4 | Cc1cccc(Nc2ccncc2S(=O)(=O)NC(=O)NC(C)C)c1 [Torasemide]
12 | 12.2 | CC12C=CC(=O)C=C1CCC1C2C(=O)CC2(C)C1CCC2(O)C(=O)CO (stereo not drawn) [Prednisone]
2.01 | 5.43 | CNCC(O)c1cccc(O)c1 (stereo not drawn) [Phenylephrine]
17.2 | 15.9 | CC1(C)CCC2(C(=O)O)CCC3(C)C(=CCC4C5(C)CCC(O)C(C)(CO)C5CCC43C)C2C1 (stereo not drawn) [Hederagenin]
14.4 | 12.6 | COC(=O)c1ccccc1S(=O)(=O)NC(=O)Nc1nc(OC(F)F)cc(OC(F)F)n1 [Primisufuron-methyl]
14.3 | 14.6 | CCOC(=O)c1ccc(N(C)C)cc1 [Ethyl-4-dimethylaminobenzoate]
15.2 | 17.7 | CCCCCCCCCCCCNC [N-Methyldodecylamine]
9.42 | 9.15 | N=c1nc(N)c(-c2cccc(Cl)c2Cl)nn1O [Lamotrigin-N2-Oxid]
14.9 | 13.9 | COc1ccc(Cl)cc1C(=O)NCCc1ccc(S(=O)(=O)NC(=O)NC2CCCCC2)cc1 [Glibenclamide]
12.3 | 12.6 | Cc1c(C(C)C)c(=O)n(-c2ccccc2)n1C [Propyphenazone]
10.4 | 14.7 | CN1CCC(=C2c3ccccc3CC(=O)c3sccc32)CC1 [Ketotifen]
6.7 | 11.8 | c1ccc(C2CN3CCSC3=N2)cc1 (stereo not drawn) [Levamisole]
16.4 | 16.6 | C#CC1(OC(C)=O)CCC2C3CCC4=CC(=NO)CCC4C3CCC21CC (stereo not drawn) [Norgestimate]
